From patent US20250026757A1, “Bicyclic Compounds for the Control of Invertebrate Pests” (BASF SE, priority 2021, published 2025)

Columns and labels:
Type in all cases: in vivo
Myzus persicae = experiment: Green peach aphid (Myzus persicae) systemic test, artificial diet in 96-well microtiter plates; conditions: 72 h, adult aphids on treated diet, 3 days, read-out: mortality in comparison with untreated controls
From the text: B.1 Green Peach Aphid (Myzus persicae)
For evaluating control of green peach aphid (Myzus persicae) through systemic means, the test unit consisted of 96-well-microtiter plates containing liquid artificial diet under an artificial membrane.
The compounds were formulated using a solution containing 75% v/v water and 25% v/v DMSO. Different concentrations of formulated compounds were pipetted into the aphid diet, using a custom built pipetter, at two replications.
After application, 5-8 adult aphids were placed on the artificial membrane inside the microtiter plate wells. The aphids were then allowed to suck on the treated aphid diet and incubated at about 23±1° C. and about 50±5% relative humidity for 3 days. Aphid mortality and fecundity was then visually assessed.

Aedes aegypti = experiment: whole plant or invertebrate; conditions: 48 h, larval mortality, 2 days, read-out: mortality in comparison with untreated controls
Method: B.5 Yellow Fever Mosquito (Aedes aegypti)
For evaluating control of yellow fever mosquito (Aedes aegypti) the test unit consisted of 96-well-microtiter plates containing 200 μl of tap water per well and 5-15 freshly hatched A. aegypti larvae.
The active compounds were formulated using a solution containing 75% (v/v) water and 25% (v/v) DMSO. Different concentrations of formulated compounds or mixtures were sprayed onto the insect diet at 2.5 μl, using a custom-built micro atomizer, at two replications.
After application, microtiter plates were incubated at 28±1° C., 80±5% RH for 2 days. Larval mortality was then visually assessed.

Spodoptera eridania = experiment: Southern armyworm (Spodoptera eridania), 2nd instar larvae, foliar spray on lima bean plants; conditions: 96 h, 2nd instar larvae on sprayed lima bean, 4 days after treatment, read-out: mortality in comparison with untreated controls
Method: B.4. Southern Armyworm (Spodoptera eridania), 2nd Instar Larvae
The active compounds were formulated by a Tecan liquid handler in 100% cyclohexanone as a 10,000-ppm solution supplied in tubes. The 10,000-ppm solution was serially diluted in 100% cyclohexanone to make interim solutions. These served as stock solutions for which final dilutions were made by the Tecan in 50% acetone:50% water (v/v) into 10 or 20 ml glass vials. A non-ionic surfactant (Kinetic®) was included in the solution at a volume of 0.01% (v/v). The vials were then inserted into an automated electrostatic sprayer equipped with an atomizing nozzle for application to plants/insects. Lima bean plants (variety Sieva) were grown 2 plants to a pot and selected for treatment at the 1st true leaf stage. Test solutions were sprayed onto the foliage by an automated electrostatic plant sprayer equipped with an atomizing spray nozzle. The plants were dried in the sprayer fume hood and then removed from the sprayer. Each pot was placed into perforated plastic bags with a zip closure. Ten to 11 armyworm larvae were placed into the bag and the bags zipped closed. Test plants were maintained in a growth room at about 25° C. and about 20-40% relative humidity for 4 days, avoiding direct exposure to fluorescent light (14:10 light:dark photoperiod) to prevent trapping of heat inside the bags. Mortality and reduced feeding were assessed 4 days after treatment, compared to untreated control plants.

Anthonomus grandis = experiment: Boll weevil (Anthonomus grandis) test, eggs on insect diet in 96-well microtiter plates; conditions: 120 h, egg and larval mortality, 5 days, read-out: mortality in comparison with untreated controls
Method: B.3 Boll Weevil (Anthonomus grandis)
For evaluating control of boll weevil (Anthonomus grandis), the test unit consisted of 96-well-microtiter plates containing an insect diet and 5-10 A. grandis eggs.
The compounds were formulated using a solution containing 75% v/v water and 25% v/v DMSO. Different concentrations of formulated compounds were sprayed onto the insect diet at 5 μl, using a custom-built micro atomizer, at two replications.
After application, microtiter plates were incubated at about 25±1° C. and about 75±5% relative humidity for 5 days. Egg and larval mortality was then visually assessed.

Heliothis virescens = experiment: Tobacco budworm (Heliothis virescens) test, eggs on insect diet in 96-well microtiter plates; conditions: 120 h, egg and larval mortality, 5 days, read-out: mortality in comparison with untreated controls
Method: B.2 Tobacco Budworm (Heliothis virescens)
For evaluating control of tobacco budworm (Heliothis virescens), the test unit consisted of 96-well-microtiter plates containing an insect diet and 15-25 H. virescens eggs.
The compounds were formulated using a solution containing 75% v/v water and 25% v/v DMSO. Different concentrations of formulated compounds were sprayed onto the insect diet at 10 μl, using a custom-built micro atomizer, at two replications.
After application, microtiter plates were incubated at about 28±1° C. and about 80±5% relative humidity for 5 days. Egg and larval mortality was then visually assessed.

CCS(=O)(=O)c1cc(Br)ccc1-c1cc(=O)n2c(cc(C(F)(F)F)n2C)n1 [Compound I-7, 5-(4-bromo-2-ethylsulfonyl-phenyl)-1-methyl-2-(trifluoromethyl)pyrazolo[1,5-a]pyrimidin-7-one]
≥ 75%: mortality at 2500 ppm (Myzus persicae) | mortality at 2500 ppm (Aedes aegypti) | mortality at 300 ppm (Spodoptera eridania)

CCS(=O)(=O)c1cc(Br)cnc1-c1nc2cc(C(F)(F)F)n(C)n2c(=O)c1C [Compound I-16, 5-(5-bromo-3-ethylsulfonyl-2-pyridyl)-1,6-dimethyl-2-(trifluoromethyl)pyrazolo[1,5-a]pyrimidin-7-one]
≥ 75%: mortality at 2500 ppm (Myzus persicae) | mortality at 2500 ppm (Anthonomus grandis)

CCS(=O)(=O)c1cc(N=S(C)(C)=O)cnc1-c1cc(=O)n2c(cc(C(F)(F)F)n2C)n1 [Compound I-2, 5-[5-[[dimethyl(oxo)-λ6-sulfanylidene]amino]-3-ethylsulfonyl-2-pyridyl]-1-methyl-2-(trifluoromethyl)pyrazolo[1,5-a]pyrimidin-7-one]
≥ 75%: mortality at 2500 ppm (Myzus persicae) | mortality at 2500 ppm (Aedes aegypti) | mortality at 2500 ppm (Anthonomus grandis)

CCS(=O)(=O)c1cc(-c2ccc(OC(F)F)cc2)cnc1-c1cc(=O)n2c(cc(C(F)(F)F)n2C)n1 [Compound I-4, 5-[5-[4-(difluoromethoxy)phenyl]-3-ethylsulfonyl-2-pyridyl]-1-methyl-2-(trifluoromethyl)pyrazolo[1,5-a]pyrimidin-7-one]
≥ 75%: mortality at 2500 ppm (Myzus persicae) | mortality at 2500 ppm (Aedes aegypti) | mortality at 2500 ppm (Heliothis virescens) | mortality at 300 ppm (Spodoptera eridania) | mortality at 2500 ppm (Anthonomus grandis)

CCS(=O)(=O)c1cc(-c2ccc(F)cc2)cnc1-c1cc(=O)n2c(cc(C(F)(F)F)n2C)n1 [Compound I-3, 5-[3-ethylsulfonyl-5-(4-fluorophenyl)-2-pyridyl]-1-methyl-2-(trifluoro-methyl)pyrazolo[1,5-a]pyrimidin-7-one]
≥ 75%: mortality at 2500 ppm (Myzus persicae) | mortality at 2500 ppm (Aedes aegypti) | mortality at 2500 ppm (Heliothis virescens) | mortality at 300 ppm (Spodoptera eridania) | mortality at 2500 ppm (Anthonomus grandis)

CCS(=O)(=O)c1cc(Br)cnc1-c1cc(=O)n2c(cc(C(F)(F)F)n2C)n1 [Compound I-1, 5-(5-bromo-3-ethylsulfonyl-2-pyridyl)-1-methyl-2-(trifluoromethyl)pyrazolo[1,5-a]pyrimidin-7-one]
≥ 75%: mortality at 2500 ppm (Myzus persicae) | mortality at 2500 ppm (Aedes aegypti) | mortality at 2500 ppm (Heliothis virescens) | mortality at 2500 ppm (Anthonomus grandis)
